# Target: TLR4 (Homo sapiens, UniProt O00206)
# Assay: Inhibition of the TLR4 signaling pathway / TLR4 binding
# Procedure: These compounds were evaluated for inhibition of the TLR4 signaling pathway in vitro and in vivo.
# Chain of TLR4 (O00206 24-839, species assumed): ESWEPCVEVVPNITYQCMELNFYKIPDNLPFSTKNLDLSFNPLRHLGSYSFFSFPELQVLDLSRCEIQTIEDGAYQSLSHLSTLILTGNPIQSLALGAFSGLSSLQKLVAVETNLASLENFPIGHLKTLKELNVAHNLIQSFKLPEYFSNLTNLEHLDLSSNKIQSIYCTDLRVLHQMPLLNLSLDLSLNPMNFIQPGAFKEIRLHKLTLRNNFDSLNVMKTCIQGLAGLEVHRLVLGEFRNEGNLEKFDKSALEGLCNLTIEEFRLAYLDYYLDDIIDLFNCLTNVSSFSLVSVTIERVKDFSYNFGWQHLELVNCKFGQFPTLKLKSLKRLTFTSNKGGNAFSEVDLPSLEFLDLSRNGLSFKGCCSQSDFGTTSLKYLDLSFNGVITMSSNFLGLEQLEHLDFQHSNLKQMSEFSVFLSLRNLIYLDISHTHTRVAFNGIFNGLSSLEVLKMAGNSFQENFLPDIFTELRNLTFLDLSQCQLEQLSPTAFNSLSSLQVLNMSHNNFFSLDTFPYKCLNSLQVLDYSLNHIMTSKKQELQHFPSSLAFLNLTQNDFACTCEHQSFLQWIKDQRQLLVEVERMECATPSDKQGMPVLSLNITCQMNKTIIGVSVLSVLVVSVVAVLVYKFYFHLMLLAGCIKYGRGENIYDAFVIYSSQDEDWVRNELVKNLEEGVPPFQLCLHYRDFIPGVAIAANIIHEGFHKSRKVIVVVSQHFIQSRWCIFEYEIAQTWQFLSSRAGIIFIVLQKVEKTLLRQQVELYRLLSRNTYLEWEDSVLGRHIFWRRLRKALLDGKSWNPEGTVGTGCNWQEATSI
compound,measurement,value
"CCOc1ccc(OCC(O)CN(C)Cc2c(C)nn(Cc3ccccc3Cl)c2C)cc1 (stereo not shown) [Compound A-1, 1-(((1-(2-chlorobenzyl)-3,5-dimethyl-1H-pyrazol-4-yl)methyl)(methyl)amino)-3-(4-ethoxyphenoxy)propan-2-ol]",TLR4 binding,substantially inhibited TLR4 binding

# — patent publication US20150087682A1, “Method for Treating Scleroderma” (The Regents of the University of Colorado, A body corporate, priority 2012, published 2015)
